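Briefly, cells in 96-well plates were exposed to five compound concentrations for 48 h, and endpoints were estimated by linear interpolation. GI50 = concentration required for 50% inhibition of growth.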 Calls of active or inactive are those of the source. Rule as the data show it: active = GI50 up to about 1.1 µM and inactive = higher.
Columns and labels:
Assay in all cases: DTP human tumour cell line panel, 48 h
A498 = test system: A498
CCRF-CEM = test system: CCRF-CEM
HT-29 = test system: HT-29
IGROV-1 = test system: IGROV-1
KM12 = test system: KM12
M14 = test system: M14
MDA-MB-435 = test system: MDA-MB-435
OVCAR-3 = test system: OVCAR-3
OVCAR-4 = test system: OVCAR-4
OVCAR-8 = test system: OVCAR-8
PC-3 = test system: PC-3
RPMI-8226 = test system: RPMI-8226
RXF 393 = test system: RXF 393
SF-268 = test system: SF-268
SF-539 = test system: SF-539
SK-MEL-5 = test system: SK-MEL-5
SK-OV-3 = test system: SK-OV-3
SNB-19 = test system: SNB-19
SR = test system: SR
TK-10 = test system: TK-10

Measured: GI50

O=C(O[C@@H](/C=C/c1ccccc1)P1(=O)N(Cc2ccccc2)[C@H]2CCCC[C@@H]2N1Cc1ccccc1)c1ccccc1
inactive: A498 2.12 µM | CCRF-CEM 3.03 µM | HT-29 3.08 µM | IGROV-1 4.79 µM | KM12 3.41 µM | M14 4.18 µM | MDA-MB-435 3.21 µM | OVCAR-3 3.48 µM | OVCAR-4 3.59 µM | OVCAR-8 4.3 µM | PC-3 2.43 µM | RPMI-8226 2.29 µM | RXF 393 2 µM | SF-268 5.5 µM | SF-539 4.57 µM | SK-MEL-5 1.93 µM | SK-OV-3 4.54 µM | SNB-19 5.81 µM | SR 2.86 µM | TK-10 3.52 µM

COc1ccc(-c2oc3cc(O)c(OC)c(O)c3c(=O)c2O)cc1 [BETULETOL]
inactive: A498 7.11 µM | CCRF-CEM 5.16 µM | HT-29 17.1 µM | IGROV-1 15.1 µM | KM12 12 µM | M14 17.8 µM | MDA-MB-435 17.9 µM | OVCAR-3 9.38 µM | OVCAR-4 30.2 µM | OVCAR-8 9.95 µM | PC-3 9.55 µM | RPMI-8226 6.1 µM | RXF 393 12 µM | SF-268 8.61 µM | SF-539 8.32 µM | SK-MEL-5 6.14 µM | SK-OV-3 6.22 µM | SNB-19 10.1 µM | SR 3.08 µM | TK-10 19.5 µM
